pKi: −log10 of the molar value.

The test concerns the target T1, Neprilysin (Rattus norvegicus, UniProt P07861).
T1 sequence (P07861 whole entry): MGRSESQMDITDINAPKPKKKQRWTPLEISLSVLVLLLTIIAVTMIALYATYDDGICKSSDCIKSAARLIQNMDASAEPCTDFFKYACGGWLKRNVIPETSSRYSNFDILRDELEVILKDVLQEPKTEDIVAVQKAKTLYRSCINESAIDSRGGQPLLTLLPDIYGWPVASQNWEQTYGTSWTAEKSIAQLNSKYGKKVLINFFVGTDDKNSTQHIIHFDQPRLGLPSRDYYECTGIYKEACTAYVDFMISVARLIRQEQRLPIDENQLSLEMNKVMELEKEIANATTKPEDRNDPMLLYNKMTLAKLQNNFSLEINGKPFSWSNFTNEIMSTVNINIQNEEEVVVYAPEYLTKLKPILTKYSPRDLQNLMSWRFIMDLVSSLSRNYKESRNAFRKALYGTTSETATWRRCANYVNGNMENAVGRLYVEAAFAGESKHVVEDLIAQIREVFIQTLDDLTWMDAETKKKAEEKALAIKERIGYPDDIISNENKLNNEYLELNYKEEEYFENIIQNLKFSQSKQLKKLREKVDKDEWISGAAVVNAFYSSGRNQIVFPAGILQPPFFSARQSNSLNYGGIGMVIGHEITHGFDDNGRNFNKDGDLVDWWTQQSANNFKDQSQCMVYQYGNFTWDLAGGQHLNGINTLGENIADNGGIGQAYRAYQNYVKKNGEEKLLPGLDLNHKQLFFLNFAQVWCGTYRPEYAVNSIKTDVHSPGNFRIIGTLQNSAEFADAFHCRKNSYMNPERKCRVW
The test is described as follows: Inhibition of neutral endopeptidase (NEP).

Usually pKi stands for −log10 of the Ki, conventionally taken in molar units. A lower pKi goes with a high Ki. `O=C(O)[C@@H]1CCCC2c3ccccc3C[C@@H](CS)C(=O)N21` (some centres undefined) had a pKi of 7.35.
`C[C@H](NC(=O)C1(CS)CCc2ccccc2C1)C(=O)OCc1ccccc1` (some centres undefined) showed a pKi of 9.52.
`O=C(OCc1ccccc1)[C@H](Cc1ccc(O)cc1)NC(=O)C1(CS)CCc2ccccc2C1` (some centres undefined) had a negative-log Ki (pKi) of 9.30.
To `O=C(CNC(=O)C1(CS)CCc2ccccc2C1)OCc1ccccc1` (centres undefined) belongs 9.40; to `O=C(CNC(=O)C1(CS)Cc2ccccc2C1)OCc1ccccc1`, 8.00; to `CC(C)[C@H](NC(=O)C1(CS)CCc2ccccc2C1)C(=O)OCc1ccccc1` (some centres undefined), 8.70.
To `O=C(NCc1ccc2c(c1)OCO2)C1(CS)CCc2ccccc2C1` (centres undefined) belongs 7.85.
To `O=C(O)C1CCC(NC(=O)C2(CS)CCc3ccccc3C2)CC1` (centres undefined) belongs 9.22.
Molecule `O=C(CS)N[C@H]1Cc2ccccc2C2CCC[C@@H](C(=O)O)N2C1=O` (some centres undefined) gave a pKi of 8.30.
To `COC(=O)[C@H](Cc1ccccc1)NC(=O)C1(CS)CCc2ccccc2C1` (some centres undefined) belongs 8.40; to `COC(=O)CCNC(=O)C1(CS)CCc2ccccc2C1` (centres undefined), 9.70.
Next, `COC(=O)[C@H](CC(C)C)NC(=O)C1(CS)CCc2ccccc2C1` (some centres undefined): 8.15; `O=C(O)[C@@H]1CCCC2c3ccccc3C[C@H](CS)C(=O)N21` (some centres undefined): < 6.52; `O=C(O)CCCCCCNC(=O)C1(CS)CCc2ccccc2C1` (centres undefined): 9.22.

The values above are taken from ChEMBL document CHEMBL1129152, “Synthesis of constrained thiorphan analogs as inhibitors of neutral endopeptidase” (Bioorg Med Chem Lett, 1996).
